The term IC50 denotes the midpoint of a concentration-inhibition curve. By EC50 is commonly meant the concentration giving half of the maximal effect.

The target in assay [1] is T1, human Cot catalytic domain (30-397 amino acids) (Homo sapiens, UniProt P41279).
T1 construct: Purified recombinant human Cot catalytic domain (30-397 amino acids) was purchased from Cama Biosciences; purchased Cama Biosciences (so in the source)
The assay can be described thus: High Throughput Cot Biochemical Assay (KinEASE TR-FRET). The conditions noted are these: Cot KinEASE TR-FRET (HTRF) biochemical assay, 400 μM ATP; read-out: IC50 HTRF. An outline of the steps: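 Recombinant human Cot catalytic domain (aa 30-397), 5 nM, with 1 μM STK3 peptide and 400 μM ATP in MOPS pH 7.0 buffer with MgOAc, DTT, BSA, NP-40, glycerol, 0.1% DMSO. Phosphorylated XL665-peptide detected by Eu-[…] antibody TR-FRET.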
For orientation: In TR-FRET formats the signal depends on donor and acceptor labels being close together.

The subject of assay [2] is TNFα production in LPS-stimulated human monocytes. Briefly: Cot Monocyte TNFα Cell Based Assay. The conditions noted are these: Homo sapiens, Monocyte, TNFα in LPS-stimulated human monocytes; read-out: EC50 TNF. Here is the method:
Example 60: Cot Monocyte TNFα Cell Based Assay
The cell suspension was then plated at a density of 5,000 cells/well onto black 384 well Greiner clear bottom plates. Plates were pre-spotted with test compounds and serially diluted in DMSO where 200 nL/well were delivered using the Echo 550 acoustic liquid dispenser (Labcyte®) for a final DMSO concentration of 0.5%. Plated cells were treated with compound for 1 hour at 37° C. Cells were then stimulated with 50 pg/ml of LPS (Sigma) excluding outside columns of plate used for unstimulated cell control wells. Cells were incubated for an additional 4 hours at 37° C. Cells were then spun out of the media and 5 ul of sample were taken and analyzed for total TNFα content using the TR-FRET Human TNFα detection system (CisBio). This system utilizes two labeled antibodies (cryptate and XL665) that bind to two different epitopes of the TNFα molecule and produce FRET signal proportional to the concentration of TNFα in the sample. Detection antibodies are mixed 50:50 and 5 μL were dispensed into each well. Plates were covered with clear seals and incubated at room temp overnight. […] Percent of control was calculated as follows: % Control=100×(RatioSample−Ratio0% stimulation)/(Ratio100% Stimulation−Ratio0% Stimulation) where unstimulated cells (0% stimulation) were the negative control and stimulated cells (100% stimulation) were used as the positive control.

T1 sequence (P41279 30-397): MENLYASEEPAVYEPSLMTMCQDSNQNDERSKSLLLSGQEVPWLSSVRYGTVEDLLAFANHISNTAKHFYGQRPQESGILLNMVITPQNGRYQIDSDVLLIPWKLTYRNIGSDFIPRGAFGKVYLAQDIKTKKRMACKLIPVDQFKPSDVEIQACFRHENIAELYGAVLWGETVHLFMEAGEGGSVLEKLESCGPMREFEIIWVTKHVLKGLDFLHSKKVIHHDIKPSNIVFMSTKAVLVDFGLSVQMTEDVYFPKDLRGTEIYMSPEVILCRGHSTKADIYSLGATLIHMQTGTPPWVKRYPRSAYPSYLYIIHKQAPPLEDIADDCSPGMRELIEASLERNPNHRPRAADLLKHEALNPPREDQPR

For `CC(C)(C)N1CCC(n2cc([C@@H](Nc3cc(Cl)c4ncc(C#N)c(Nc5ccc(F)c(Cl)c5)c4c3)c3cccc(C(=O)O)c3)nn2)CC1` [Compound 19], the IC50 in assay [1] was found to be 0.005 µM. Besides, the 50% effective concentration (EC50) in assay [2] came out at 18 µM.

In the case of `CN(C)C(=O)c1cccc([C@H](Nc2cc(Cl)c3ncc(C#N)c(Nc4ccc(F)c(Cl)c4)c3c2)c2cn(C3CCN(C(C)(C)C)CC3)nn2)c1` [Compound 20], the IC50 in assay [1] is 0.001 µM. In addition, the EC50 in assay [2] worked out at 0.041 µM.

For the molecule `CC(=O)c1cccc([C@H](Nc2cc(Cl)c3ncc(C#N)c(Nc4ccc(F)c(Cl)c4)c3c2)c2cn(C3CCN(C(C)(C)C)CC3)nn2)c1` [Compound 21], the IC50 in assay [1] came to 0.005 µM. Moreover, the EC50 in assay [2] is 0.234 µM.

As for `CC(O)c1cccc([C@H](Nc2cc(Cl)c3ncc(C#N)c(Nc4ccc(F)c(Cl)c4)c3c2)c2cn(C3CCN(C(C)(C)C)CC3)nn2)c1` (stereo partly drawn) [Compound 22], in assay [1], the IC50 came to 0.002 µM. Moreover, the EC50 in assay [2] worked out at 0.158 µM.

`CC(C)(C)N1CCC(n2cc([C@@H](Nc3cc(Cl)c4ncc(C#N)c(Nc5ccc(F)c(Cl)c5)c4c3)c3cccc(-c4ncco4)c3)nn2)CC1` [Compound 23]: the IC50 in assay [1] was 0.002 µM. In addition, in assay [2], the EC50 was found to be 0.095 µM.

In the case of `CC(C)(C)N1CCC(n2cc([C@@H](Nc3cc(Cl)c4ncc(C#N)c(Nc5ccc(F)c(Cl)c5)c4c3)c3cccc(N)c3)nn2)CC1` [Compound 24], in assay [1], the IC50 was 0.006 µM. In addition, the EC50 in assay [2] amounted to 0.12 µM.

In the case of `CC(C)(C)N1CCC(n2cc([C@@H](Nc3cc(Cl)c4ncc(C#N)c(Nc5ccc(F)c(Cl)c5)c4c3)c3cccc(NS(C)(=O)=O)c3)nn2)CC1` [Compound 25], the IC50 in assay [1] came out at 0.004 µM. In addition, the EC50 in assay [2] was 0.975 µM.

Consider `[2H]C(Nc1cc(Cl)c2ncc(C#N)c(NCC(C)(C)C)c2c1)(c1cn(C(F)(F)CO)nn1)c1ccccc1Cl` (stereo not drawn) [Compound 26], for which the IC50 in assay [1] was determined as 0.013 µM. Moreover, the EC50 in assay [2] was 0.38 µM.

On to `CCN1CCC(n2cnc(C(Nc3cc(Cl)c4ncc(C#N)c(Nc5ccc(F)c(Cl)c5)c4c3)c3ccccc3)c2)CC1` (stereo not drawn) [Compound 27, 8-chloro-4-((3-chloro-4-fluorophenyl)amino)-6-(((1-(1-ethylpiperidin-4-yl)-1H-imidazol-4-yl)(phenyl)methyl)amino) quinoline-3-carbonitrile], for which, in assay [1], the IC50 stood at 0.011 µM. Further, the EC50 in assay [2] was 0.232 µM.

With `[2H][C@](Nc1cc(-c2ccccn2)c2ncc(C#N)c(NCC(C)(C)C)c2c1)(c1ccc(F)cc1)c1cn(C2CC2)nn1` [Compound 28], the concentration for half-maximal inhibition (IC50) in assay [1] was determined as 2 µM. Moreover, the EC50 in assay [2] was > 1 µM.

For the molecule `[2H][C@](Nc1cc(C(C)O)c2ncc(C#N)c(NCC(C)(C)C)c2c1)(c1ccc(F)cc1)c1cn(C2CC2)nn1` (stereo partly drawn) [Compound 29], the IC50 in assay [1] was 0.217 µM. Also, the EC50 in assay [2] is > 1 µM.

In the case of `[2H][C@](Nc1cc(C#C)c2ncc(C#N)c(N[C@H](CC)c3ccccc3)c2c1)(c1ccc(F)cc1)c1cn(C2CC2)nn1` [Compound 30], the IC50 in assay [1] worked out at 7.21 µM. The EC50 in assay [2] is > 10 µM.

With `N#Cc1cnc2c(Cl)cc(N[C@@H](c3ccc(F)cc3)c3cn(C4CC4)nn3)cc2c1N[C@H](CCF)c1ccccc1` [Compound 32], in assay [1], the IC50 worked out at 0.005 µM. Also, in assay [2], the EC50 is 0.078 µM.

For `[2H]C(Nc1cc(Cl)c2ncc(C#N)c(NC(=O)C(C)(C)C)c2c1)(c1ccc(F)cc1)c1cn(C2CC2)nn1` (stereo not drawn) [Compound 33], the IC50 in assay [1] came to 1.62 µM. For the same molecule, in assay [2], the EC50 was > 10 µM.

Turning to `[2H]C(Nc1cc(Cl)c2ncc(C#N)c(N[C@H](CCN3CCOCC3)c3ccccc3)c2c1)(c1ccc(F)cc1)c1cn(C2CC2)nn1` (stereo partly drawn) [Compound 34], the IC50 in assay [1] is 0.013 µM. The EC50 in assay [2] was determined as 0.192 µM.

For `COCCN1CCC(n2cc([C@@H](Nc3cc(Cl)c4ncc(C#N)c(Nc5ccc(F)c(Cl)c5)c4c3)c3ccc(F)cc3)nn2)CC1` [Compound 35], the IC50 in assay [1] stood at 0.015 µM. The EC50 in assay [2] came to 0.229 µM.

For the molecule `[2H]C(Nc1cc(Cl)c2ncc(C#N)c(N[C@H](CC)c3ccccc3)c2c1F)(c1cccc(C#N)c1)c1cn(C2CC2)nn1` (stereo partly drawn) [Compound 36], in assay [1], the IC50 was > 10 µM. Besides, in assay [2], the EC50 was > 10 µM.

For the molecule `[2H][C@](Nc1cc(Cl)c2ncc(C#N)c(N[C@H](CC)c3ccccc3)c2c1)(c1cccc(C#N)c1)c1cnnn1C1CC1` [Compound 37], in assay [1], the IC50 was found to be 0.81 µM. For the same molecule, the EC50 in assay [2] is > 1 µM.

For the molecule `CCN1CCC(n2cc([C@@H](Nc3cc(Cl)c4ncc(C#N)c(Nc5ccc(F)c(Cl)c5)c4c3)c3cccc(C(=O)N(C)C)c3)nn2)CC1` [Compound 41], the IC50 in assay [1] was found to be 0.001 µM. For the same molecule, the EC50 in assay [2] came out at 0.074 µM.

As for `CC(C)(C)N1CCC(n2cc([C@@H](Nc3cc(Cl)c4ncc(C#N)c(Nc5ccc(F)c(Cl)c5)c4c3)c3cccc(C=O)c3)nn2)CC1` [Compound 42], the IC50 in assay [1] was 0.005 µM. For the same molecule, the EC50 in assay [2] was 0.138 µM.

Consider `[2H][C@](Nc1cc(O)c2ncc(C#N)c(NCC(C)(C)C)c2c1)(c1ccc(F)cc1)c1cn(C2CC2)nn1` [Compound 43], for which, in assay [1], the 50% inhibitory concentration (IC50) came out at 1.94 µM. Further, the EC50 in assay [2] was > 10 µM.

Regarding `[2H][C@](Nc1cc(Cl)c2ncc(C#N)c(Nc3cnc(F)c(F)c3)c2c1)(c1ccc(F)cc1)c1cn(CF)nn1` [Compound 44], the IC50 in assay [1] came out at 0.053 µM. The EC50 in assay [2] came out at 0.902 µM.

As for `Cn1cc([C@@H](Nc2cc(Cl)c3ncc(C#N)c(Nc4cnc(F)c(F)c4)c3c2)c2ccccc2F)nn1` [Compound 45], in assay [1], the IC50 turned out to be 0.01 µM. Besides, the EC50 in assay [2] stood at 0.877 µM.

`CC(C)(C)CNc1c(C#N)cnc2c(C#N)cc(N[C@@H](c3cccc(C(=O)N4CC(F)C4)c3)c3cn(C4CC4)nn3)cc12` [Compound 58]: the IC50 in assay [1] is 0.003 µM. For the same molecule, in assay [2], the EC50 was determined as 0.269 µM.

As for `CC(C)(C)CNc1c(C#N)cnc2c(C#N)cc(N[C@@H](c3cccc(C(N)=O)c3)c3cn(C4CC4)nn3)cc12` [Compound 59], the IC50 in assay [1] is 0.001 µM. For the same molecule, in assay [2], the EC50 stood at 0.612 µM.

On to `CC(C)(C)CNc1c(C#N)cnc2c(Br)cc(N[C@@H](c3cccc(C(=O)O)c3)c3cn(C4CC4)nn3)cc12` [Compound 60], for which the IC50 in assay [1] amounted to 0.017 µM. Also, the EC50 in assay [2] is > 1 µM.

`[2H][C@](Nc1cc(Cl)c2ncc(C#N)c(N[C@H](CC)c3ccccc3)c2c1)(c1cccc(C#N)c1)c1cn(CC=C)nn1` [Compound 61]: the IC50 in assay [1] amounted to 0.003 µM. In addition, in assay [2], the EC50 is 0.075 µM.

`[2H][C@](Nc1cc(-c2cnc(C)nc2)c2ncc(C#N)c(NCC(C)(C)C)c2c1)(c1ccc(F)cc1)c1cn(C2CC2)nn1` [Compound 62]: in assay [1], the IC50 was 0.029 µM. For the same molecule, the EC50 in assay [2] stood at 0.447 µM.

In the case of `CC[C@@H](Nc1c(C#N)cnc2c(Cl)cc(N[C@H](c3cn(C4(C#N)CC4)nn3)c3ccccc3Cl)cc12)c1ccccc1` [Example 49, 8-chloro-6-(((S)-(2-chlorophenyl)(1-(1-cyanocyclopropyl)-1H-1,2,3-triazol-4-yl)methyl)amino)-4-(((R)-1-phenylpropyl)amino) quinoline-3-carbonitrile], the IC50 in assay [1] was found to be 0.026 µM. For the same molecule, the EC50 in assay [2] is 0.33 µM.

With `[2H][C@](Nc1cc(Cl)c2ncc(C#N)c(N[C@H](CCC#N)c3ccccc3)c2c1)(c1cccc(C#N)c1)c1cn(C(F)(F)CO)nn1` [Example 51, 8-chloro-4-(((R)-3-cyano-1-phenylpropyl)amino)-6-(((S)-(3-cyanophenyl) (1-(1,1-difluoro-2-hydroxyethyl)-1H-1,2,3-triazol-4-yl)methyl-d)amino) quinoline-3-carbonitrile], in assay [1], the IC50 worked out at 0.001 µM. The EC50 in assay [2] is 0.057 µM.

Consider `CC(C)(C)CNc1c(C#N)cnc2c(Br)cc(N[C@@H](c3cccc(C(=O)N4CC(O)C4)c3)c3cn(C4CC4)nn3)cc12` [Example 52, (S)-8-bromo-6-(((1-cyclopropyl-1H-1,2,3-triazol-4-yl) (3-(3-hydroxyazetidine-1-carbonyl)phenyl)methyl)amino)-4-(neopentylamino) quinoline-3-carbonitrile], for which, in assay [1], the IC50 was determined as 0.004 µM. In addition, the EC50 in assay [2] was > 1 µM.

On to `CC(C)(C)CNc1c(C#N)cnc2c(Br)cc(N[C@@H](c3cccc(C(=O)N4CC(F)C4)c3)c3cn(C4CC4)nn3)cc12` [Example 53, (S)-8-bromo-6-(((1-cyclopropyl-1H-1,2,3-triazol-4-yl)(3-(3-fluoroazetidine-1-carbonyl)phenyl)methyl)amino)-4-(neopentylamino) quinoline-3-carbonitrile], for which, in assay [1], the IC50 is 0.005 µM. For the same molecule, the EC50 in assay [2] turned out to be 0.163 µM.

For the molecule `CC(C)(C)CNc1c(C#N)cnc2c(Br)cc(N[C@@H](c3cccc(C(N)=O)c3)c3cn(C4CC4)nn3)cc12` [Example 54, (S)-3-(((8-bromo-3-cyano-4-(neopentylamino)quinolin-6-yl)amino) (1-cyclopropyl-1H-1,2,3-triazol-4-yl)methyl)benzamide], in assay [1], the IC50 came to 0.002 µM. For the same molecule, in assay [2], the EC50 was 0.267 µM.

Source of the values: patent publication US10316017B2, “COT modulators and methods of use thereof” (Gilead Sciences, Inc., priority 2015, dated 2019).
